Results taken from US8710065B2, “Tricyclic inhibitors of kinases” (AbbVie Inc., priority 2011, dated 2014).

What follows are molecules tested against T1, GST-tagged-Wee1 kinase (Homo sapiens, UniProt P30291) (assay: Wee1 time-resolved fluorescence equilibrium binding assay (displacement of Oregon Green-labeled ATP-competitive kinase probe)). Settings: read-out: Wee-1 inhibition (Ki).
T1 construct: purchased Carnabio (Carna Biosciences) 05-177
Description: Wee1 kinase was assayed using a time-resolved fluorescence equilibrium binding assay monitoring displacement of a rapidly reversible Oregon Green-labeled ATP-competitive kinase probe (N-(2-(2-(2-(4-(4-(5-chloro-4-(2-(1-hydroxycyclobutyl)thiazol-5-yl)-1H-pyrrolo[2,3-b]pyridin-2-yl)phenyl)piperazin-1-yl)ethoxy)ethoxy)ethyl)-2′,7′-difluoro-3′,6′-dihydroxy-3-oxo-3H-spiro[isobenzofuran-1,9′-xanthene]-5-carboxamide) by competitive Wee1 inhibitors.
Table 1 depicts enzyme inhibition data (Ki) for exemplary compounds.

T1 sequence (P30291 whole entry): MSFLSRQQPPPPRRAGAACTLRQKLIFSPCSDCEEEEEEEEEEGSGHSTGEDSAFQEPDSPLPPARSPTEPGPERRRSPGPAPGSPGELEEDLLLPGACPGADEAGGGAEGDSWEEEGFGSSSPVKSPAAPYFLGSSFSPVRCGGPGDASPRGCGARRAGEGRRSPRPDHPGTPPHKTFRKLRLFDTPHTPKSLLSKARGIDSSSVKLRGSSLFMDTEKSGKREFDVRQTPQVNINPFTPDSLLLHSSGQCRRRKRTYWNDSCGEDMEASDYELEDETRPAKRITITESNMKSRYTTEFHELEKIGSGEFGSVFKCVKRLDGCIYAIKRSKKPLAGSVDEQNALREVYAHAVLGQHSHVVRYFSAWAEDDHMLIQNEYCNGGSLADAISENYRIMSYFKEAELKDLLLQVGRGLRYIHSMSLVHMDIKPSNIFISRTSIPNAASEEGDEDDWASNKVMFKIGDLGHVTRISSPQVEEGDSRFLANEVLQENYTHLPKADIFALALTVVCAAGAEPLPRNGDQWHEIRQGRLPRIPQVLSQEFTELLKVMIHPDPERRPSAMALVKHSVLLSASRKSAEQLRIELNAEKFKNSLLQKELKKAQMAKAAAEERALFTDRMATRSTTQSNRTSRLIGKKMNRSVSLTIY

Ki [nM]	Structure (SMILES)
< 10	CC(C)N1CCN(c2ccc(Nc3ncc4c(=O)n(-c5ccccc5Cl)c5nccn5c4n3)cc2F)CC1 [Example 33, 6-(2-chlorophenyl)-2-({3-fluoro-4-[4-(propan-2-yl)piperazin-1-yl]phenyl}amino)imidazo[1,2-a]pyrimido[5,4-e]pyrimidin-5(6H)-one]
< 10	CN1CCc2ccc(Nc3ncc4c(=O)n(-c5ccccc5Cl)c5nccn5c4n3)cc2C1 [Example 34, 6-(2-chlorophenyl)-2-[(2-methyl-1,2,3,4-tetrahydroisoquinolin-7-yl)amino]imidazo[1,2-a]pyrimido[5,4-e]pyrimidin-5(6H)-one]
< 10	CN(C)CCOc1ccc(Nc2ncc3c(=O)n(-c4ccccc4Cl)c4nccn4c3n2)cc1 [Example 35, 6-(2-chlorophenyl)-2-({4-[2-(dimethylamino)ethoxy]phenyl}amino)imidazo[1,2-a]pyrimido[5,4-e]pyrimidin-5(6H)-one]
10 to 100	O=c1c2cnc(Nc3ccc(OCCN4CCOCC4)cc3)nc2n2ccnc2n1-c1ccccc1Cl [Example 36, 6-(2-chlorophenyl)-2-({4-[2-(morpholin-4-yl)ethoxy]phenyl}amino)imidazo[1,2-a]pyrimido[5,4-e]pyrimidin-5(6H)-one]
< 10	Cc1cc(Nc2ncc3c(=O)n(-c4ccccc4Cl)c4nccn4c3n2)ccc1N1CCCN(C)CC1 [Example 37, 6-(2-chlorophenyl)-2-{[3-methyl-4-(4-methyl-1,4-diazepan-1-yl)phenyl]amino}imidazo[1,2-a]pyrimido[5,4-e]pyrimidin-5(6H)-one]
< 10	CN1CCC(c2ccc(Nc3ncc4c(=O)n(-c5ccccc5Cl)c5nccn5c4n3)cc2)CC1 [Example 38, 6-(2-chlorophenyl)-2-{[4-(1-methylpiperidin-4-yl)phenyl]amino}imidazo[1,2-a]pyrimido[5,4-e]pyrimidin-5(6H)-one]
10 to 100	CN1CCN(c2ccc(Nc3ncc4c(=O)n(-c5ccccc5)c5nccn5c4n3)cc2)CC1 [Example 39, 2-{[4-(4-methylpiperazin-1-yl)phenyl]amino}-6-phenylimidazo[1,2-a]pyrimido[5,4-e]pyrimidin-5(6H)-one]
< 10	Cc1ccc(-n2c(=O)c3cnc(Nc4ccc(N5CCN(C)CC5)cc4)nc3n3ccnc23)c(Cl)c1 [Example 40, 6-(2-chloro-4-methylphenyl)-2-{[4-(4-methylpiperazin-1-yl)phenyl]amino}imidazo[1,2-a]pyrimido[5,4-e]pyrimidin-5(6H)-one]
10 to 100	O=C(NC1CCCCC1)c1ccc(Nc2ncc3c(=O)n(-c4ccccc4Cl)c4nccn4c3n2)cc1 [Example 41, 4-{[6-(2-chlorophenyl)-5-oxo-5,6-dihydroimidazo[1,2-a]pyrimido[5,4-e]pyrimidin-2-yl]amino}-N-cyclohexylbenzamide]
10 to 100	CN1CCN(C(=O)c2ccc(Nc3ncc4c(=O)n(-c5ccccc5Cl)c5nccn5c4n3)cc2)CC1 [Example 42, 6-(2-chlorophenyl)-2-({4-[(4-methylpiperazin-1-yl)carbonyl]phenyl}amino)imidazo[1,2-a]pyrimido[5,4-e]pyrimidin-5(6H)-one]
10 to 100	O=c1c2cnc(Nc3ccc(-c4cn[nH]c4)cc3)nc2n2ccnc2n1-c1ccccc1Cl [Example 43, 6-(2-chlorophenyl)-2-{[4-(1H-pyrazol-4-yl)phenyl]amino}imidazo[1,2-a]pyrimido[5,4-e]pyrimidin-5(6H)-one]
< 10	CCN(CC)CCOc1ccc(Nc2ncc3c(=O)n(-c4ccccc4Cl)c4nccn4c3n2)cc1 [Example 44, 6-(2-chlorophenyl)-2-({4-[2-(diethylamino)ethoxy]phenyl}amino)imidazo[1,2-a]pyrimido[5,4-e]pyrimidin-5(6H)-one]
10 to 100	O=c1c2cnc(Nc3ccc(-c4cccnc4)cc3)nc2n2ccnc2n1-c1ccccc1Cl [Example 45, 6-(2-chlorophenyl)-2-{[4-(pyridin-3-yl)phenyl]amino}imidazo[1,2-a]pyrimido[5,4-e]pyrimidin-5(6H)-one]
